Source: US8466290B2, “STAT3 inhibitor containing quinolinecarboxamide derivative as active ingredient” (Pharma IP General Incorporated Association, priority 2008, dated 2013)

Assays:
[1] = test system: STAT3; test: STAT3 transcription inhibition test (reporter gene method, oncostatin M stimulation); format: cell-based; settings: compound at 100 μM, STAT3 reporter HeLa stable cell line, oncostatin M 10 ng/mL, 4 hours; for inhibition at 100 µM: Homo sapiens, read-out: STAT3 transcription inhibitory activity (%)
Procedure: The inhibition of STAT3 transcription was evaluated by using STAT3 reporter HeLa stable cell line (Panomics Inc., catalog No. RC0003), a cell line for the reporter gene method, and performing the following method according to the appendix included therein.
STAT3 reporter HeLa stable cell line subcultured and maintained in a Dulbecco's modified Eagle's medium (DMEM) containing 10% fetal bovine serum, 100 units/mL penicillin, and 100 μg/mL streptomycin was inoculated at a concentration of 40000 cells/well to a 96-well plate (white) and attached to the plate by overnight incubation at 37° C. under 5% CO2. After addition of each evaluation compound adjusted to various concentrations (adjusted with a DMSO solution), the cells were precultured for 1 hour. Then, oncostatin M for activating STAT3 was added at a final concentration 10 ng/mL, and the cells were further cultured at 37° C. under 5% CO2 for 4 hours. Luciferase activity derived from the cells was determined using Steady-Glo Luciferase Assay System (Promega Corp.), and STAT3 transcriptional activity scores were calculated according to the following formula: STAT3 transcriptional activity score (%)=100×(Lchem−L0)/(LDMSO−L0) Lo: luminescence intensity obtained without stimulation with oncostatin M Lchem: luminescence intensity obtained by the addition of a test sample LDMSO: luminescence intensity obtained by the addition of only a solvent for dissolving a test sample

[2] = test system: MDA-MB-435S; test: MDA-MB-435S cell growth inhibitory activity; format: cell-based; settings: Homo sapiens, compound at 20 μM, 72 hours, read-out: Cell growth inhibitory activity (%)
Procedure: […] Each well was washed three times with a medium. Then, after addition of 100 μL/well of a medium and 20 μL/well of CellTiter 96 AQueous One Solution Reagent (Promega Corp.), the cells were incubated at 37° C. for 2 hours in the presence of 5% CO2.

For `O=C(Nc1nnc(-c2ccoc2)o1)c1cc(-c2ccccc2)nc2ccccc12` [Ia-2, N-[5-(3-furyl)-1,3,4-oxadiazol-2-yl]-2-phenyl-4-quinolinecarboxamide], the inhibition at 100 µM [1] was > 100%.

`O=C(Nc1nnc(-c2ccccc2)o1)c1cc(-c2ccccc2)nc2ccccc12` [Ia-3, 2-phenyl-N-(5-phenyl-1,3,4-oxadiazol-2-yl)-4-quinolinecarboxamide] was tested, and the inhibition at 20 µM [2] was 53% and the inhibition at 100 µM [1] was > 100%.

With `O=C(Nc1nnc(-c2ccc(Cl)cc2)o1)c1cc(-c2ccccc2)nc2ccccc12` [Ia-5, N-[5-(4-chlorophenyl)-1,3,4-oxadiazol-2-yl]-2-phenyl-4-quinolinecarboxamide] the inhibition at 100 µM [1] was > 100%.

In the case of `O=C(Nc1nnc(-c2ccc([N+](=O)[O-])cc2)o1)c1cc(-c2ccccc2)nc2ccccc12` [Ia-7, N-[5-(4-nitrophenyl)-1,3,4-oxadiazol-2-yl]-2-phenyl-4-quinolinecarboxamide], the inhibition at 100 µM [1] is reported as 65%.

In the case of `O=C(Nc1nnc(-c2cccnc2)o1)c1cc(-c2ccccc2)nc2ccccc12` [Ia-9, 2-phenyl-N-[5-(3-pyridyl)-1,3,4-oxadiazol-2-yl]-4-quinolinecarboxamide], the inhibition at 100 µM [1] is reported as 65%.

For `O=C(Nc1nnc(-c2ccco2)o1)c1cc(N2CCCCC2)nc2ccccc12` [Ia-14, N-[5-(2-furyl)-1,3,4-oxadiazol-2-yl]-2-piperidino-4-quinolinecarboxamide], the inhibition at 100 µM [1] was 63%.

`O=C(Nc1nnc(-c2ccco2)o1)c1cc(-c2cccc([N+](=O)[O-])c2)nc2ccccc12` [Ia-16, N-[5-(2-furyl)-1,3,4-oxadiazol-2-yl]-2-(3-nitrophenyl)-4-quinolinecarboxamide] gave an inhibition at 100 µM [1] of 62%.

`O=C(Nc1nnc(-c2ccco2)o1)c1cc(-c2ccco2)nc2ccccc12` [Ia-18, 2-(2-furyl)-N-[5-(2-furyl)-1,3,4-oxadiazol-2-yl]-4-quinolinecarboxamide] showed an inhibition at 100 µM [1] of 68%.

Work on `COc1ccc2nc(-c3ccccc3)cc(C(=O)Nc3nnc(-c4ccco4)o3)c2c1` [Ia-23, N-[5-(2-furyl)-1,3,4-oxadiazol-2-yl]-6-methoxy-2-phenyl-4-quinolinecarboxamide] yielded an inhibition at 20 µM [2] of 50% and an inhibition at 100 µM [1] of 100%.

In the case of `Cc1c(Cl)ccc2c(C(=O)Nc3nnc(-c4ccco4)o3)cc(-c3ccccc3)nc12` [Ia-26, 7-chloro-N-[5-(2-furyl)-1,3,4-oxadiazol-2-yl]-8-methyl-2-phenyl-4-quinolinecarboxamide], the inhibition at 100 µM [1] is reported as 73%.

With `Cc1c(Cl)ccc2c(C(=O)Nc3nnc(-c4ccco4)o3)cc(-c3ccco3)nc12` [Ia-28, 7-chloro-2-(2-furyl)-N-[5-(2-furyl)-1,3,4-oxadiazol-2-yl]-8-methyl-4-quinolinecarboxamide] the inhibition at 100 µM [1] was > 100%.

In the case of `O=C(Nc1nnc(-c2ccco2)o1)c1cc(-c2cccs2)nc2c(Cl)cccc12` [Ia-32, 8-chloro-N-[5-(2-furyl)-1,3,4-oxadiazol-2-yl]-2-(2-thienyl)-4-quinolinecarboxamide], the inhibition at 100 µM [1] is reported as 90%.

`O=C(Nc1nnc(-c2ccco2)o1)c1cc(-c2ccccc2Cl)nc2ccccc12` [Ia-37, 2-(2-chlorophenyl)-N-[5-(2-furyl)-1,3,4-oxadiazol-2-yl]-4-quinolinecarboxamide] was tested, and the inhibition at 100 µM [1] was 100%.

With `Nc1ccccc1-c1cc(C(=O)Nc2nnc(-c3ccco3)o2)c2ccccc2n1` [Ia-40, 2-(2-aminophenyl)-N-[5-(2-furyl)-1,3,4-oxadiazol-2-yl]-4-quinolinecarboxamide] the inhibition at 100 µM [1] was 62%.

`O=C(Nc1nnc(-c2ccco2)o1)c1cc(-c2ccc(O)cc2)nc2ccccc12` [Ia-50, N-[5-(2-furyl)-1,3,4-oxadiazol-2-yl]-2-(4-hydroxyphenyl)-4-quinolinecarboxamide] showed an inhibition at 100 µM [1] of 73%.

Compound `Cc1ccc(-c2cc(C(=O)Nc3nnc(-c4ccco4)o3)c3ccccc3n2)c(C)c1` [Ia-56, N-[5-(2-furyl)-1,3,4-oxadiazol-2-yl]-2-(2,4-dimethylphenyl)-4-quinolinecarboxamide] has an inhibition at 100 µM [1] of 99%.

`COc1ccc2cc(-c3cc(C(=O)Nc4nnc(-c5ccco5)o4)c4ccccc4n3)ccc2c1` [Ia-61, N-[5-(2-furyl)-1,3,4-oxadiazol-2-yl]-2-(6-methoxy-2-naphthyl)-quinolinecarboxamide] was tested, and the “STAT3 transcription inhibitory activity (%)” value [1] was >100%.

`O=C(Nc1nnc(-c2ccco2)o1)c1cc(-c2ccco2)nc2c(Cl)cccc12` [Ia-79, 8-chloro-2-(2-furyl)-N-[5-(2-furyl)-1,3,4-oxadiazol-2-yl]-4-quinolinecarboxamide] was tested, and the inhibition at 100 µM [1] was > 100%.

`O=C(Nc1nnc(-c2ccc([N+](=O)[O-])o2)o1)c1cc(-c2ccccc2)nc2ccccc12` [Ia-84, N-[5-(5-nitro-2-furyl)-1,3,4-oxadiazol-2-yl]-2-phenyl-4-quinolinecarboxamide] gave an inhibition at 100 µM [1] of 56%.

`CN(C)CCOc1ccc2nc(-c3ccccc3)cc(C(=O)Nc3nnc(-c4ccco4)o3)c2c1` [Ia-88, N-[5-(2-furyl)-1,3,4-oxadiazol-2-yl]-6-[2-(dimethylamino)ethoxy]-2-phenyl-4-quinolinecarboxamide] gave an inhibition at 100 µM [1] of 76%.

With `COCCOc1ccc2nc(-c3ccccc3)cc(C(=O)Nc3nnc(-c4ccco4)o3)c2c1` [Ia-89, N-[5-(2-furyl)-1,3,4-oxadiazol-2-yl]-6-(2-methoxyethoxy)-2-phenyl-4-quinolinecarboxamide] the inhibition at 100 µM [1] was > 100%.

For `O=C(Nc1nnc(-c2ccco2)o1)c1cc(-c2ccccc2)nc2ccc(OCc3ccccc3)cc12` [Ia-90, 6-benzyloxy-N-[5-(2-furyl)-1,3,4-oxadiazol-2-yl]-2-phenyl-4-quinolinecarboxamide], the inhibition at 100 µM [1] was > 100%.

`CCCC(=O)Nc1ccc2nc(-c3ccccc3)cc(C(=O)Nc3nnc(-c4ccco4)o3)c2c1` [Ia-94, 6-butyrylamino-N-[5-(2-furyl)-1,3,4-oxadiazol-2-yl]-2-phenyl-4-quinolinecarboxamide] showed an inhibition at 100 µM [1] of 89%.

Work on `O=C(Nc1nnc(-c2ccccc2)o1)c1cc(-c2cccs2)nc2ccccc12` [Ia-j, N-(5-phenyl-1,3,4-oxadiazol-2-yl)-2-(2-thienyl)-4-quinolinecarboxamide] yielded an inhibition at 100 µM [1] of 91%.

With `O=C(Nc1nnc(-c2ccco2)s1)c1cc(-c2ccccc2)nc2ccccc12` [Ib-4, N-[5-(2-furyl)-1,3,4-thiadiazol-2-yl]-2-phenyl-4-quinolinecarboxamide] the inhibition at 100 µM [1] was 58%.

`COc1ccc(OC)c(-c2cc(C(=O)Nc3nnc(-c4ccncc4)s3)c3ccccc3n2)c1` [Ib-c, 2-(2,5-dimethoxyphenyl)-N-[5-(4-pyridyl)-1,3,4-thiadiazol-2-yl]-4-quinolinecarboxamide] was tested, and the inhibition at 100 µM [1] was > 100%.

`O=C(Nc1nnc(-c2ccncc2)s1)c1cc(-c2cccnc2)nc2ccc(Cl)cc12` [Ib-d, 6-chloro-2-(3-pyridyl)-N-[5-(4-pyridyl)-1,3,4-thiadiazol-2-yl]-4-quinolinecarboxamide] showed an inhibition at 100 µM [1] of 73%.

`Cc1ccc(-c2cc(C(=O)Nc3nnc(-c4ccncc4)s3)c3ccccc3n2)o1` [Ib-e, 2-(5-methyl-2-furyl)-N-[5-(4-pyridyl)-1,3,4-thiadiazol-2-yl]-4-quinolinecarboxamide] gave an inhibition at 100 µM [1] of 85%.

In the case of `Cc1cc(-c2cc(C(=O)Nc3nnc(-c4ccncc4)s3)c3cc(Cl)ccc3n2)c(C)s1` [Ib-f, 6-chloro-2-(2,5-dimethyl-3-thienyl)-N-[5-(4-pyridyl)-1,3,4-thiadiazol-2-yl]-4-quinolinecarboxamide], the inhibition at 100 µM [1] is reported as 100%.

In the case of “N-[(5-phenyl-1,3,4-oxadiazol-2-yl)methyl]-4-quinolinecarboxamide [Ia-10]”, the “STAT3 transcription inhibitory activity (%)” value [1] is reported as >100%.
